From patent US8404692B2, “Pyrimidin-4-yl-3, 4-dihydro-2H-pyrrolo [1,2A] pyrazin-1-one compounds” (Cyclacel Limited, priority 2005, dated 2013)

biological target: T1, aurora-A (human) (Homo sapiens, UniProt O14965); test: Aurora-A (human) kinase assay; assay type: biochemical; conditions: read-out: Activity (Aurora A activity, IC50 grading)
T1 construct: purchased Upstate, Dundee, UK
T1 sequence (O14965 1-403): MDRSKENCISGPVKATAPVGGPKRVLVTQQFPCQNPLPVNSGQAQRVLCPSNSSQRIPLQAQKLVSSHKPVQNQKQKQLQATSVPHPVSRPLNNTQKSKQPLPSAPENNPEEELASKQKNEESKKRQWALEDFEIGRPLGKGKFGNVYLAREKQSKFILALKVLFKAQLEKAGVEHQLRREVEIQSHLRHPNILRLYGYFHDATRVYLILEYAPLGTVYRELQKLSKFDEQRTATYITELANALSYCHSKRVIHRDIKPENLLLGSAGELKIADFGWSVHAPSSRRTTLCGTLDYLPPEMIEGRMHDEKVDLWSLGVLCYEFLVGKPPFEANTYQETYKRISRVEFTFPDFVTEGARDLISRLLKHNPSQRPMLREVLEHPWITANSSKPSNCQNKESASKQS
How it was run: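 Radiometric assay measuring [γ-32P] transfer from 100 μM ATP to 500 μM Kemptide by 2-5 ng active human aurora-A, pH 7.5 buffer, 30 min at 30° C. Incorporated label captured on P81 filters and counted by scintillation; IC50 from curve fitting.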

Compound | IC50 [µM]
Cc1c(-c2ccnc(Nc3ccc(F)cc3Cl)n2)c(C)n2c1C(=O)NCC2 [Example I-86, 7-[2-(2-Chloro-4-fluoro-phenylamino)-pyrimidin-4-yl]-6,8-dimethyl-3,4-dihydro-2H-pyrrolo[1,2-a]pyrazin-1-one] | < 10
Cc1ccc(F)cc1Nc1nccc(-c2c(C)c3n(c2C)CCNC3=O)n1 [Example I-88, 7-[2-(5-Fluoro-2-methyl-phenylamino)-pyrimidin-4-yl]-6,8-dimethyl-3,4-dihydro-2H-pyrrolo[1,2-a]pyrazin-1-one] | < 10
CCN(CC)CCNS(=O)(=O)c1ccc(Nc2nccc(-c3c(C)c4n(c3C)CCNC4=O)n2)cc1C [Example I-90, N-(2-Diethylamino-ethyl)-4-[4-(6,8-dimethyl-1-oxo-1,2,3,4-tetrahydro-pyrrolo[1,2-a]pyrazin-7-yl)-pyrimidin-2-ylamino]-2-methyl-benzenesulfonamide] | < 10
Cc1cc(Nc2nccc(-c3c(C)c4n(c3C)CCNC4=O)n2)ccc1S(=O)(=O)N(C)CCCN(C)C [Example I-91, N-(3-Dimethylamino-propyl)-4-[4-(6,8-dimethyl-1-oxo-1,2,3,4-tetrahydro-pyrrolo[1,2-a]pyrazin-7-yl)-pyrimidin-2-ylamino]-2,N-dimethyl-benzenesulfonamide] | < 10
CCOC(=O)c1c(C)nn(-c2ccc(Nc3nccc(-c4c(C)c5n(c4C)CCNC5=O)n3)cc2)c1C [Example I-92, 1-{4-[4-(6,8-Dimethyl-1-oxo-1,2,3,4-tetrahydro-pyrrolo[1,2-a]pyrazin-7-yl)-pyrimidin-2-ylamino]-phenyl}-3,5-dimethyl-1H-pyrazole-4-carboxylic acid ethyl ester] | < 10
Cc1c(-c2ccnc(Nc3ccc4c(c3)CS(=O)(=O)C4)n2)c(C)n2c1C(=O)N(C)CC2 [Example I-94, 7-[2-(2,2-Dioxo-2,3-dihydro-1H-2-benzo[c]thiophen-5-ylamino)-pyrimidin-4-yl]-2,6,8-trimethyl-3,4-dihydro-2H-pyrrolo[1,2-a]pyrazin-1-one] | < 0.1
Cc1c(-c2ccnc(Nc3cccc(S(=O)(=O)N4CCCCC4)c3)n2)c(C)n2c1C(=O)NCC2 [Example I-95c, 6,8-Dimethyl-7-{2-[3-(piperidine-1-sulfonyl)-phenylamino]-pyrimidin-4-yl}-3,4-dihydro-2H-pyrrolo[1,2-a]pyrazin-1-one] | < 10
COCCNC(=O)Cc1ccc(Nc2nccc(-c3c(C)c4n(c3C)CCNC4=O)n2)cc1 [Example I-96, 2-{4-[4-(6,8-Dimethyl-1-oxo-1,2,3,4-tetrahydro-pyrrolo[1,2-a]pyrazin-7-yl)-pyrimidin-2-ylamino]-phenyl}-N-(2-methoxy-ethyl)-acetamide] | < 0.1
Cc1c(-c2ccnc(Nc3ccc(CC(=O)N(C)CCN(C)C)cc3)n2)c(C)n2c1C(=O)NCC2 [Example I-97, N-(2-Dimethylamino-ethyl)-2-{4-[4-(6,8-dimethyl-1-oxo-1,2,3,4-tetrahydro-pyrrolo[1,2-a]pyrazin-7-yl)-pyrimidin-2-ylamino]-phenyl}-N-methyl-acetamide] | < 1
Cc1c(-c2ccnc(Nc3ccc(CC(=O)N4CCOCC4)cc3)n2)c(C)n2c1C(=O)NCC2 [Example I-99, 6,8-Dimethyl-7-{2-[4-(2-morpholin-4-yl-2-oxo-ethyl)-phenylamino]-pyrimidin-4-yl}-3,4-dihydro-2H-pyrrolo[1,2-a]pyrazin-1-one] | < 1
CC(=O)N1CCN(C(=O)Cc2ccc(Nc3nccc(-c4c(C)c5n(c4C)CCNC5=O)n3)cc2)CC1 [Example I-100, 7-(2-{4-[2-(4-Acetyl-piperazin-1-yl)-2-oxo-ethyl]-phenylamino}-pyrimidin-4-yl)-6,8-dimethyl-3,4-dihydro-2H-pyrrolo[1,2-a]pyrazin-1-one] | < 1
Cc1c(-c2ccnc(Nc3ccc(CC(=O)N4CCN(C)CC4)cc3)n2)c(C)n2c1C(=O)NCC2 [Example I-101, 6,8-Dimethyl-7-(2-{4-[2-(4-methyl-piperazin-1-yl)-2-oxo-ethyl]-phenylamino}-pyrimidin-4-yl)-3,4-dihydro-2H-pyrrolo[1,2-a]pyrazin-1-one] | < 0.1
CNC(=O)Cc1ccc(Nc2nccc(-c3c(C)c4n(c3C)CCNC4=O)n2)cc1 [Example I-103, 2-{4-[4-(6,8-Dimethyl-1-oxo-1,2,3,4-tetrahydro-pyrrolo[1,2-a]pyrazin-7-yl)-pyrimidin-2-ylamino]-phenyl}-N-methyl-acetamide] | < 0.1
Cc1c(-c2ccnc(Nc3ccc(CC(=O)N(C)C)cc3)n2)c(C)n2c1C(=O)NCC2 [Example I-104, 2-{4-[4-(6,8-Dimethyl-1-oxo-1,2,3,4-tetrahydro-pyrrolo[1,2-a]pyrazin-7-yl)-pyrimidin-2-ylamino]-phenyl}-N,N-dimethyl-acetamide] | < 1
COCCNC(=O)CCc1cccc(Nc2nccc(-c3c(C)c4n(c3C)CCNC4=O)n2)c1 [Example I-105, 3-{3-[4-(6,8-Dimethyl-1-oxo-1,2,3,4-tetrahydro-pyrrolo[1,2-a]pyrazin-7-yl)-pyrimidin-2-ylamino]-phenyl}-N-(2-methoxy-ethyl)-propionamide] | < 0.1

Other lines, results leading:

IC50 [µM] | Compound
< 10 | COc1ccc(Nc2nccc(-c3c(C)c4n(c3C)CCNC4=O)n2)c(OC)c1 [Example I-85, 7-[2-(2,4-Dimethoxy-phenylamino)-pyrimidin-4-yl]-6,8-dimethyl-3,4-dihydro-2H-pyrrolo[1,2-a]pyrazin-1-one]
< 10 | COc1ccc(Cl)cc1Nc1nccc(-c2c(C)c3n(c2C)CCNC3=O)n1 [Example I-87, 7-[2-(5-Chloro-2-methoxy-phenylamino)-pyrimidin-4-yl]-6,8-dimethyl-3,4-dihydro-2H-pyrrolo[1,2-a]pyrazin-1-one]
< 10 | Cc1ccc(Oc2ccc(Nc3nccc(-c4c(C)c5n(c4C)CCNC5=O)n3)cc2)cc1 [Example I-89, 6,8-Dimethyl-7-[2-(4-p-tolyloxy-phenylamino)-pyrimidin-4-yl]-3,4-dihydro-2H-pyrrolo[1,2-a]pyrazin-1-one]
< 0.1 | Cc1nccc(-c2cccc(Nc3nccc(-c4c(C)c5n(c4C)CCN(C)C5=O)n3)c2)n1 [Example I-93, 2,6,8-Trimethyl-7-{2-[3-(2-methyl-pyrimidin-4-yl)-phenylamino]-pyrimidin-4-yl}-3,4-dihydro-2H-pyrrolo[1,2-a]pyrazin-1-one]
< 1 | CCN1CCn2c(C)c(-c3ccnc(Nc4cccc(-c5ccnc(C)n5)c4)n3)c(C)c2C1=O [Example I-95, 2-Ethyl-6,8-dimethyl-7-{2-[3-(2-methyl-pyrimidin-4-yl)-phenylamino]-pyrimidin-4-yl}-3,4-dihydro-2H-pyrrolo[1,2-a]pyrazin-1-one]
< 1 | Cc1c(-c2ccnc(Nc3ccc(CC(=O)N(C)CCCN(C)C)cc3)n2)c(C)n2c1C(=O)NCC2 [Example I-98, N-(3-Dimethylamino-propyl)-2-{4-[4-(6,8-dimethyl-1-oxo-1,2,3,4-tetrahydro-pyrrolo[1,2-a]pyrazin-7-yl)-pyrimidin-2-ylamino]-phenyl}-N-methyl-acetamide]
< 0.1 | Cc1c(-c2ccnc(Nc3ccc(CC(N)=O)cc3)n2)c(C)n2c1C(=O)NCC2 [Example I-102, 2-{4-[4-(6,8-Dimethyl-1-oxo-1,2,3,4-tetrahydro-pyrrolo[1,2-a]pyrazin-7-yl)-pyrimidin-2-ylamino]-phenyl}-acetamide]
